Measurements taken from paper PMC11272598, “RG7774 (Vicasinabin), an orally bioavailable cannabinoid receptor 2 (CB2R) agonist, decreases retinal vascular permeability, leukocyte adhesion, and ocular inflammation in animal models” (Frontiers in Pharmacology, 2024).

Experiments:
Human DAGL = Human DAGL assay (HaCaT cells); type: biochemical; conditions: positive control 10 µM
Protocol: (§1) Mouse brain or human HaCaT cells (CLS Cell Lines Service, GmbH, Eppelheim, Germany) were homogenized in 50 mM Tris-HCl (pH 7.4) using a glass potter, and homogenates were centrifuged at 4°C sequentially at 800 g (10 min) and 10,000 g (30 min). The final pellet (80–200 µg) was resuspended in 50 mM Tris-HCl (pH 7.4) containing 10 mM CaCl2 and incubated at 37°C for 30 min with sn-1[^14C]-stearoyl-2-arachidonoyl-glycerol (100 µM) (ARC, MO, USA). Reactions were stopped by adding chloroform/methanol (2:1, v/v), and the organic phase was dried and fractionated by thin-layer chromatography on silica gel, as previously reported. Levels of 1[^14C]-stearoyl acid radioactivity were determined by cutting the appropriate band from the gel and analyzing using a β-scintillation counter. Mouse cells were preincubated for 15 min with RG7774 (10 µM) and added to the incubation medium. Human cells were preincubated for 15 min with 8 different concentrations of RG7774 (0.1-500 µM) and added to the incubation medium. Control experiments were carried out in the presence of the selective DAGL inhibitor, D053 (10 µM).

Mouse DAGL = Mouse DAGL assay (brain); type: biochemical; conditions: positive control 10 µM
Protocol: as §1

Human EMT = Human EMT activity (HaCaT cells); type: cell-based; conditions: positive control 40 µM
Protocol: HaCaT cells were seeded (350,000–400,000 cell/well) in triplicate in 12-well plates and incubated for 15 min in PBS at 37°C with [^3H]-N-arachidonoylethanolamine ([^3H]-AEA) (400 nM) (ARC, MO, USA), as previously reported. Experiments were repeated at 4°C in order to subtract passive diffusion from EMT-mediated uptake. RG7774 (10 µM) was preincubated with labeled HaCaT cells for 15 min before adding directly to the incubation medium (PBS). The selective EMT inhibitor, OMDM-1 (40 µM), was used as positive control.

Mouse FAAH = molecular target: T1, Mouse FAAH (Mus musculus, UniProt O08914); experiment: Mouse FAAH assay (brain); type: biochemical; conditions: positive control 100 nM; read-out: Mean ± SEM % inhibition of control, Mouse FAAH
T1 construct: Mouse brain was homogenized in 50 mM Tris-HCl (pH 7.4); from tissue; host or cells: mouse brain, 1000 g supernatant
Protocol: (§2) Mouse brain was homogenized in 50 mM Tris-HCl (pH 7.4) using a glass potter, centrifuged at 1000 g for 10 min, and the pellet was discarded. The supernatant (50 µg) was incubated with [^14C]-AEA (10 µM) (ARC, MO, USA) at 37°C for 15 min (Tris-HCl, pH 9.0) and reactions were stopped with a 2:1 (v/v) mixture of chloroform/methanol. [^14C]-ethanolamine release in the aqueous phase was measured as previously reported. Mouse supernatants (50 µg) were preincubated with RG7774 (10 µM) for 15 min and added directly to the incubation medium. Purified human FAAH (1.7 µg; Cayman Chemical Company, MI, USA) was incubated with [^14C]-AEA (10 µM) (ARC, MO, USA) at 37°C for 15 min (pH 9.0), as previously described. […] for 15 min with 8 different concentrations of RG7774 (0.1-500 µM) and added directly to the incubation medium (250 µL). Control experiments was carried out in the presence of the FAAH inhibitor, URB-597 (100 nM).

Human FAAH = molecular target: T2, Human FAAH (Homo sapiens, UniProt O00519); experiment: Human FAAH assay; type: biochemical; conditions: positive control 100 nM; read-out: Mean ± SEM % inhibition of control, Human FAAH
T2 construct: purchased Cayman Chemical Company
Protocol: as §2

Jurkat cells = experiment: xCELLigence impedance assay in Jurkat cells; type: cell-based, human; conditions: co-treatment with RG7774
Protocol: Background impedance was determined in 96-well RTCA E-plates (Agilent Technologies, Santa Clara, CA, United States) coated with 150 μg/mL fibronectin/H2O (Sigma-Aldrich, St. Louis, MO, United States) and containing 50 μL RPMI 1640 assay medium (Fisher Scientific, Schwerte, Germany) 31870) with 10% fetal calf serum (FCS). Jurkat cells (200,000 cells per well) were seeded in 100 μL of growth medium, allowed to settle for 30 min at RT, and cultured overnight at 37°C and 5% CO2. Dose-response curves were generated by adding increasing concentrations of RG7774 to seeded Jurkat cells and performing impedance measurements (xCelligence RTCA M, Agilent Technologies, Santa Clara, CA, United States) at baseline and 1 h after treatment. Displacement experiments were performed by incubating seeded Jurkat cells with 10 μM SR144528, a CB2R-selective antagonist (Tocris Bioscience, Bristol, United Kingdom) or 10 μM RO6851228 (a CB2R-selective inverse agonist; in-house synthesis) in assay medium overnight at 37°C and 5% CO2. Cells were re-treated with 10 μM SR144528 or […] for 1 h and stimulated with 233 nM RG7774 in assay medium. […] Displacement data are presented as the percentage of the maximal normalized cell index determined after antagonist/inverse agonist treatment relative to the percentage of the normalized cell index at 109 nM RG7774 treatment.

Human MAGL = molecular target: T3, Human MAGL (Homo sapiens, UniProt Q99685); experiment: Human MAGL assay (U937 cell extracts); type: biochemical; conditions: positive control 100 nM
T3 construct: Mouse brain or human U937 cell extracts (ATCC, Manassas, VI, USA); host or cells: U937 cells, 100,000 g supernatant
Protocol: The final supernatant was incubated with [^3H]-2-OG (10 µM) (ARC, MO, USA) at 37°C for 30 min as previously described, and reactions were stopped with a 2:1 (v/v) mixture of chloroform/methanol. [^3H]-glycerol release in the aqueous phase was measured by scintillation counting. […] Human supernatant (100 µg) was preincubated for 15 min at RT with 8 different concentrations of RG7774 (0.1-500 µM) in the incubation medium.

Mouse CB1R = Mouse CB1R (Mus musculus, UniProt P47746); experiment: Mouse cAMP assay in N18TG2 cells; type: cell-based; parameters: inhibition at 0.1 µM: reference not given here; conditions: N18TG2, read-out: Mean ± SEM % inhibition of control, Mouse CB1R (cAMP assay)
Protocol: The effect of RG7774 on the forskolin-stimulated accumulation of cAMP was determined using the LANCE ULTRAcAMP kit (PerkinElmer Life Sciences, MA, USA), according to the manufacturer’s instructions. Briefly, N18TG2 cells preincubated for 30 min with 1-methyl-3-isobutylxanthine (1 mM) were added to 0.5 µM forskolin preincubated with or without RG7774 for 15 min. Reactions were incubated for 30 min at 37°C and Time-resolved fluorescence was measured using a Victor V Multilabel counter (PerkinElmer Life Sciences). Data were transformed into cAMP concentrations using a standard curve.

Human 12-LOX = molecular target: T4, Human 12-LOX (Homo sapiens, UniProt P18054); experiment: Human 12-LOX assay; type: biochemical; conditions: positive control 100 µM
T4 construct: human platelet-derived 12-LOX; from tissue; host or cells: human platelets
Protocol: (§3) The inhibitory effects of different concentrations of RG7774 (0.1-500 µM) on the activities of human recombinant 5-LOX (Cayman Chemical Company #60402), 15-LOX (Cayman Chemical Company #10011263), and human platelet-derived 12-LOX were determined using the Biovision Lipoxygenase Activity Assay Kit (#BVN-K978-100). This kit converts the LOX substrate to an intermediate that reacted with the probe, generating a fluorescent product. The effect of RG7774 (preincubated for 15 min) at 10 µM on LOXs (5-LOX: 0.5 or 1.2 µg; 12-LOX: 20 µg; 15-LOX: 0.23 or 0.3 µg) was ascertained by adding the compounds directly to the incubation medium and the fluorescent signal, recorded at excitation/emission 500/536 nm at 30 sec intervals for 30-40 min, was directly proportional to LOX activity. […] The percentage of human 5-, 12-, and 15-LOX activity (control) was estimated from the amount of oxidized probe in the reaction using a standard curve.

Human 5-LOX = molecular target: T5, Human 5-LOX (Homo sapiens, UniProt P09917); experiment: Human 5-LOX assay; type: biochemical; conditions: positive control 100 µM
T5 construct: purchased Cayman Chemical Company #60402
Protocol: as §3

T4 sequence (P18054 whole entry): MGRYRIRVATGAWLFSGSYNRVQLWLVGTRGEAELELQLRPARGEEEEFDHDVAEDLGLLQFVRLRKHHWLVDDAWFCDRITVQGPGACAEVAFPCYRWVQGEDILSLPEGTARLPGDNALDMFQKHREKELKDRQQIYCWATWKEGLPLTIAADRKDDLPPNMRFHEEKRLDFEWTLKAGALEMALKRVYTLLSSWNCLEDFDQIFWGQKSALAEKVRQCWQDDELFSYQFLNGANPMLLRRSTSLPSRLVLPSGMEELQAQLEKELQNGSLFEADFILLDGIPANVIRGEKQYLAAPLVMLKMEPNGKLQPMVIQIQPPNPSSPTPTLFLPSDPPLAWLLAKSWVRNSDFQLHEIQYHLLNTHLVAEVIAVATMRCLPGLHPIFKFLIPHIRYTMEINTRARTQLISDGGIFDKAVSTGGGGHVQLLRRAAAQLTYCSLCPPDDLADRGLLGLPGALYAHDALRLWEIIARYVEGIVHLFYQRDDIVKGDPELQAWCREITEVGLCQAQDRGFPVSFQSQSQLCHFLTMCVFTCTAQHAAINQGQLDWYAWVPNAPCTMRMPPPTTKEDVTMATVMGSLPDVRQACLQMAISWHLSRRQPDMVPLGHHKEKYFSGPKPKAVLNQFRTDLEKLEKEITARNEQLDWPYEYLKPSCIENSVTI
Chain of Mouse CB1R (P47746 whole entry): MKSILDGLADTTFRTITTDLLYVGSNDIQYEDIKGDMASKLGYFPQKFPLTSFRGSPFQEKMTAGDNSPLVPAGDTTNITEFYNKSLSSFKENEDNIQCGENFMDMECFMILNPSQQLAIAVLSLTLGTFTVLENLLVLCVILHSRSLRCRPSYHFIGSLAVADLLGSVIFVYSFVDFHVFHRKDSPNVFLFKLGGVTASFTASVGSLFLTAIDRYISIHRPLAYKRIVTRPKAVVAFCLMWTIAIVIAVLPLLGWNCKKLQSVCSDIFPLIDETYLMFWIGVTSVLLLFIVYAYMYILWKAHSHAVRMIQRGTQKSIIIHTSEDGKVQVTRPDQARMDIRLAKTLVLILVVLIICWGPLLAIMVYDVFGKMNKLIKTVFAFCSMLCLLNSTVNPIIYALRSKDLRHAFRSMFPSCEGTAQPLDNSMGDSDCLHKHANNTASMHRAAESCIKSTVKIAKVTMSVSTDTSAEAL
T3 sequence (Q99685 whole entry): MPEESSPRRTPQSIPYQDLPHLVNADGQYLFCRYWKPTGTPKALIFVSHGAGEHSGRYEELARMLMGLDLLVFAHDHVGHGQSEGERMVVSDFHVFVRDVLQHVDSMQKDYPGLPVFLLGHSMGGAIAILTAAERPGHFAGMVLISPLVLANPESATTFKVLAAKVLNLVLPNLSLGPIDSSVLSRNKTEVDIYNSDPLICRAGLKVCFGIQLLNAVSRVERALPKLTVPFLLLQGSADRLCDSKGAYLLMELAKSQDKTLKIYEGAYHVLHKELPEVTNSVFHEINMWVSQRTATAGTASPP
T1 sequence (O08914 whole entry): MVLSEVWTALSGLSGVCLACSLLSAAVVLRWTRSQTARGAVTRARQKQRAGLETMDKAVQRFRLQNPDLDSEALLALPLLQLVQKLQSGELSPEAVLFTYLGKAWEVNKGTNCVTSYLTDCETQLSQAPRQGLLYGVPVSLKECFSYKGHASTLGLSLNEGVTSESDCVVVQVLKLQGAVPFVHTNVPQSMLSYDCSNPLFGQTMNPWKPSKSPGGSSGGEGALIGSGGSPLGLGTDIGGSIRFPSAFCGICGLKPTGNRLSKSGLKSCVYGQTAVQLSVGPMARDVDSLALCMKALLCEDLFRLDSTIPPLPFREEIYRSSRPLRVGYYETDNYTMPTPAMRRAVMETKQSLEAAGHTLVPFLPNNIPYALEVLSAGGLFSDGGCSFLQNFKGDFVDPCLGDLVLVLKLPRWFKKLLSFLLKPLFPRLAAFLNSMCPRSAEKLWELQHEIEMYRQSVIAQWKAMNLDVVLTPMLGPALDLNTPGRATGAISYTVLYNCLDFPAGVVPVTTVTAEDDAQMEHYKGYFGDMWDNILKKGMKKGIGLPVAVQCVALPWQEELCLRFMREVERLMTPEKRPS
T2 sequence (O00519 whole entry): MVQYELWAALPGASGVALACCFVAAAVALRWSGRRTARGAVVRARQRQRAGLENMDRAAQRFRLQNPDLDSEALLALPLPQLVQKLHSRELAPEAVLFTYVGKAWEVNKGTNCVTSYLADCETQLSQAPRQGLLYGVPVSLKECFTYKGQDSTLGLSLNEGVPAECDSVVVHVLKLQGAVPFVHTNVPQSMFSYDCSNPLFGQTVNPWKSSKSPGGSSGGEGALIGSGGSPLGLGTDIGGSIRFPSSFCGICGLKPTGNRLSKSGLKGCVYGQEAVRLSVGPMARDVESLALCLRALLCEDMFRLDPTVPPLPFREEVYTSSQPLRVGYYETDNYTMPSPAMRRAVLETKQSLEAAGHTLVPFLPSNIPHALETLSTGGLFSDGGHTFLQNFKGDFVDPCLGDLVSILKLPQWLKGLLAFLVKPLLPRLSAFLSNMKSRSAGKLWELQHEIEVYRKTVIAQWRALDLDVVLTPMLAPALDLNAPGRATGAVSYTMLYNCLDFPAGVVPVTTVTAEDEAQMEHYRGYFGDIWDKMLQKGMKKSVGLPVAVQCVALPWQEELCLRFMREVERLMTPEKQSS
T5 sequence (P09917 whole entry): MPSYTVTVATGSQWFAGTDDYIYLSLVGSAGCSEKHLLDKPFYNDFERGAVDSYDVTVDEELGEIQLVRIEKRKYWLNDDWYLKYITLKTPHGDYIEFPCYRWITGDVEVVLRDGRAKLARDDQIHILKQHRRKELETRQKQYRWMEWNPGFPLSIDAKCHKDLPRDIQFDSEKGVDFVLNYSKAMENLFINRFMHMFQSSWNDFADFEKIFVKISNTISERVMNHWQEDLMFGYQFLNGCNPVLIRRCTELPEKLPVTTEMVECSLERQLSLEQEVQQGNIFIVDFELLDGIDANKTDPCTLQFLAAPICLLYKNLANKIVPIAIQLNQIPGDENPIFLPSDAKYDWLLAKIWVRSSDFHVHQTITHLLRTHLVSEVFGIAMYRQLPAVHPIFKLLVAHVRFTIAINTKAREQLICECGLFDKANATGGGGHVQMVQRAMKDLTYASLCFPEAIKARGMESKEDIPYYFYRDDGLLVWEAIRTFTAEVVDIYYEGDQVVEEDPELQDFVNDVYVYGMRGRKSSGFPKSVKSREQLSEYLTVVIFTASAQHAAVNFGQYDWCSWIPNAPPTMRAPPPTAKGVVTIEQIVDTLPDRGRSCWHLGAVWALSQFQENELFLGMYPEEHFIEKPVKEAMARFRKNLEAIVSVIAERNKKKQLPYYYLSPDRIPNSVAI

Compound: CC(C)(C)OC(=O)N1CCN(C(=O)n2cc(-c3ccc(OC(F)(F)F)cc3)nn2)C(c2ccccc2)C1 (stereo not shown) [DO53, reference compound]
- Mean ± SEM % inhibition of control, Human DAGL (Human DAGL): 103.1 ± 13.2%
- Mean ± SEM % inhibition of control, Mouse DAGL (Mouse DAGL): 60.4 ± 4.3%

Compound: CCCCCCCC/C=C\CCCCCCCC(=O)N[C@H](CO)Cc1ccc(O)cc1 [OMDM-1, reference compound]
- Mean ± SEM % inhibition of control, Human EMT (Human EMT): 95.5 ± 0.4%

Compound: NC(=O)c1cccc(-c2cccc(OC(=O)NC3CCCCC3)c2)c1 [URB-597, reference compound]
- inhibition at 0.1 µM (Mouse FAAH): 83.2 ± 4.6%
- inhibition at 0.1 µM (Human FAAH): 92.8 ± 6.1%

Compound: SR144528 [reference compound]
- inhibition of RG7774-induced increase in maximal normalized cell index (Jurkat cells): fully inhibited

Compound: O=C(Oc1ccc([N+](=O)[O-])cc1)N1CCC(C(O)(c2ccc3c(c2)OCO3)c2ccc3c(c2)OCO3)CC1 [JZL-184, reference compound]
- Mean ± SEM % inhibition of control, Human MAGL (Human MAGL): 84.3 ± 3.4%

Compound: CCCCCCC(C)(C)c1ccc([C@@H]2C[C@H](O)CC[C@H]2CCCO)c(O)c1 [CP-55940, reference compound]
- inhibition at 0.1 µM (Mouse CB1R): 91.5 ± 2.6%

Compound: CC(Cc1ccc(O)c(O)c1)C(C)Cc1ccc(O)c(O)c1 (stereo not shown) [NDGA, reference compound]
- Mean ± SEM % inhibition of control, Human 12-LOX (Human 12-LOX): 84.6 ± 0.7%
- Mean ± SEM % inhibition of control, Human 5-LOX (Human 5-LOX): 126.6 ± 2.4%
